In patent US12275745B2, “Therapeutic compounds and methods of use” (Genentech, Inc., priority 2021, dated 2025) one finds IC50 data, which are given here for 31 molecules.

The IC50 is the concentration needed to halve the response being measured. A lower IC50 goes with higher potency.

Experiment [1] addresses TEAD1 (Homo sapiens, UniProt P28347). The experiment is described as follows: TR-FRET (Lipid HTRF) TEAD lipid pocket probe displacement assay, TEAD1. It is filed as binding. Conditions: His-tagged TEAD1, biotinylated lipid pocket probe, 4 hours. In general terms: In TR-FRET formats the signal depends on donor and acceptor labels being close together.
Experiment [2] deals with TEAD3 (Homo sapiens, UniProt Q99594). The experiment is described as follows: TR-FRET (Lipid HTRF) TEAD lipid pocket probe displacement assay, TEAD3. In kind it is binding. To be noted: His-tagged TEAD3, biotinylated lipid pocket probe, 4 hours.
TEAD3, sequence (Q99594 whole entry, species assumed): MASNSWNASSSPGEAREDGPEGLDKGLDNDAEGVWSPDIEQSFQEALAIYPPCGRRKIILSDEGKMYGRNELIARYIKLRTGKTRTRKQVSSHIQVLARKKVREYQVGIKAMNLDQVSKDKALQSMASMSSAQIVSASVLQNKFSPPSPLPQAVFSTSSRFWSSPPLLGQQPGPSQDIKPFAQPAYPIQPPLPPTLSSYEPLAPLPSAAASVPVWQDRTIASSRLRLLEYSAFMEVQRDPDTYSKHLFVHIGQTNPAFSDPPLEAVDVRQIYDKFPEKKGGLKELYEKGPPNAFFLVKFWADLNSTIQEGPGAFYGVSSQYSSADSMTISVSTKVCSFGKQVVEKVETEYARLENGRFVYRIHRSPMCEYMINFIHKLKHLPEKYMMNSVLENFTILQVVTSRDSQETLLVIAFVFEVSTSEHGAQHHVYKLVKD
For experiment [3], the target named is TEAD4 (Homo sapiens, UniProt Q15561). The experiment is described as follows: TR-FRET (Lipid HTRF) TEAD lipid pocket probe displacement assay, TEAD4. To be noted: His-tagged TEAD4, biotinylated lipid pocket probe, 4 hours. In kind it is binding.
TEAD4, sequence (Q15561 whole entry, species assumed): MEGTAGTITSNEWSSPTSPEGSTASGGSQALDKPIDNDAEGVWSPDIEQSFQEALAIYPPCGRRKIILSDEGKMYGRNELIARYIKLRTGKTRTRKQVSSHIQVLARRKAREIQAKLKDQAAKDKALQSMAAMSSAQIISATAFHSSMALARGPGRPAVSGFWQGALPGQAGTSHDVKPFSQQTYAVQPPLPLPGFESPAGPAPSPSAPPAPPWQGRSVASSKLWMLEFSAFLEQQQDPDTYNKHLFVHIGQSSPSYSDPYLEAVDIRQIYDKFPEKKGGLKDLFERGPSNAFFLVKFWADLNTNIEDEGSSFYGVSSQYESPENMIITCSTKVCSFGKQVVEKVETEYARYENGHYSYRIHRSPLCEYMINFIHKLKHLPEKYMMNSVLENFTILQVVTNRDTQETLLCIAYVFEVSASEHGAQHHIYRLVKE
Experiment [4] concerns the target TEAD2 (Homo sapiens, UniProt Q15562). The experiment is described as follows: biochemical.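 Also: TR-FRET competition assay with His-tagged TEAD protein and a biotinylated lipid pocket probe, where probe displacement by compound lowers the signal.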
Method: His-tagged TEAD proteins are pre-incubated with TEAD project compounds for 30 minutes or 4 hours at room temperature. Biotinylated lipid pocket probes are then added to the TEAD/Compound mixture and incubated for 60 minutes at room temperature. The lipid pocket probe competes with the test compound for the TEAD lipid pocket until equilibrium is reached. After 60 minutes, Europium labelled anti-His (Perkin Elmer #AD0110) and XL665 labelled streptavidin (CIS Bio 610SAXAC) are added to the TEAD/test compound/lipid pocket mixture and incubated for 30 minutes or 4 hours. TR-FRET values are then measured using an EnVision multi-label plate reader (Perkin Elmer Cat #2104-001 0A.) If the lipid pocket probe binds to TEAD as expected, a TR-FRET signal results from the proximity of anti-His Eu and XL665. If a TEAD lipid pocket binder such as binds and displaces the lipid pocket probe, the disruption of the TEAD:probe interaction results in a decrease in TR-FRET signal. The potency of compounds as TEAD lipid pocket binders is determined by IC50 value generated using a non-linear 4 parameter curve fit.

SMILES strings stand for the structures.

TEAD2, sequence (Q15562 whole entry, species assumed): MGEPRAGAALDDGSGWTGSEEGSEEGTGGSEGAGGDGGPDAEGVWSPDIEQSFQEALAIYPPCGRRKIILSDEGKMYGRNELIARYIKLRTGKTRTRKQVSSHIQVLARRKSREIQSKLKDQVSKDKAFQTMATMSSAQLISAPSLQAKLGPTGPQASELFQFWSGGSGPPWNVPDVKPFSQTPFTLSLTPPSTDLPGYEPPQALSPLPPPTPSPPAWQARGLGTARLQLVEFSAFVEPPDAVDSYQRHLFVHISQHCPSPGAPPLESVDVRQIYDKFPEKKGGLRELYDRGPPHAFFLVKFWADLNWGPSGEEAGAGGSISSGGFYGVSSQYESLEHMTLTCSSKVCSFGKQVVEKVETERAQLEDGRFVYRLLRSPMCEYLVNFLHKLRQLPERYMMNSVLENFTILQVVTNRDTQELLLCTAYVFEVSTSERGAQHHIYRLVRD
TEAD1, sequence (P28347 whole entry, species assumed): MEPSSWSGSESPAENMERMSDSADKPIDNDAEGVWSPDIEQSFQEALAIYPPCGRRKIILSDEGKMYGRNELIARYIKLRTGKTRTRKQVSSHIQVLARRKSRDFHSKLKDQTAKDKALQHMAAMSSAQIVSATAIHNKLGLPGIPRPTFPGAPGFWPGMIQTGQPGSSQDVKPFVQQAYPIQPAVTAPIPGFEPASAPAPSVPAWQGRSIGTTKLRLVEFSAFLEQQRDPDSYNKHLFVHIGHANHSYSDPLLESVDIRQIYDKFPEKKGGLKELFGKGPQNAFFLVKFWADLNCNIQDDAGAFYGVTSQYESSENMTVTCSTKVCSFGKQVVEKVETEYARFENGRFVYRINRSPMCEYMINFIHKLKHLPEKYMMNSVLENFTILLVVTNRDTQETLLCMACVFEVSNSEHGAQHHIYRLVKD

For the molecule `C=CC(=O)NC1CN(c2nc(-c3ccc(OC(F)(F)F)cc3)c3ncn(C)c3n2)C1` [Compound 127, N-(1-(9-Methyl-6-(4-(trifluoromethoxy)phenyl)-9H-purin-2-yl)azetidin-3-yl)acrylamide], the IC50 came out at 26 nM in experiment [1], 420 nM in experiment [2], 23 nM in experiment [3] and 28 nM in experiment [4].

Turning to `[2H]C([2H])=C([2H])C(=O)NCc1cc(-c2ccc(OC(F)(F)F)cc2)c2c(c1CO)CCO2` [Compound 20, 2,3,3-Trideuterio-N-((4-(hydroxymethyl)-7-(4-(trifluoromethoxy)phenyl)-2,3-dihydrobenzofuran-5-yl)methyl]prop-2-enamide], the IC50 in experiment [3] was found to be 17.5 nM; in experiment [4], 23.5 nM.

For the molecule `Cn1cnc2c(-c3ccc(OC(F)(F)F)cc3)cn(C3CN(C(=O)/C=C/CO)C3)c(=O)c21` [Compound 137, (E)-5-(1-(4-Hydroxybut-2-enoyl)azetidin-3-yl)-3-methyl-7-(4-(trifluoromethoxy)phenyl)-3,5-dihydro-4H-imidazo[4,5-c]pyridin-4-one], the IC50 in experiment [1] was determined as 75 nM; in experiment [2], 95 nM; in experiment [3], 14 nM; in experiment [4], 94 nM.

Turning to `C=CC(=O)N1CC[C@@H](c2nc(-c3ccc(OC(F)(F)F)cc3)c3ncn(C)c3n2)C1` (single isomer, unassigned) [Compound 122], the IC50 in experiment [1] was 93 nM; in experiment [2], 580 nM; in experiment [4], 66 nM.

In the case of `C=C(F)C(=O)N1CC(c2nc(-c3ccc(OC(F)(F)F)cc3)c3ncn(C)c3n2)C1` [Compound 118, 2-Fluoro-1-(3-(9-methyl-6-(4-(trifluoromethoxy)phenyl)-9H-purin-2-yl)azetidin-1-yl)prop-2-en-1-one], the IC50 was 9.5 nM in experiment [1], 6.7 nM in experiment [3] and 72 nM in experiment [4].

With `C=CC(=O)NCc1cc(-c2ccc(OC(F)(F)F)cc2)c2ncn(C)c2c1C#N` [Compound 27, N-[[4-cyano-3-methyl-7-[4-(trifluoromethoxy)phenyl]benzimidazol-5-yl]methyl]prop-2-enamide], the IC50 in experiment [2] came out at 40.5 nM; in experiment [3], 6.7 nM; in experiment [4], 15 nM.

As for `Cn1cnc2c(-c3ccc(OC(F)(F)F)cc3)nc(C3CN(C(=O)C45CC4C5)C3)nc21` (centres unmarked) [Compound 119, Bicyclo[1.1.0]butan-1-yl(3-(9-methyl-6-(4-(trifluoromethoxy)phenyl)-9H-purin-2-yl)azetidin-1-yl)methanone], the IC50 was 160 nM in experiment [3] and 1300 nM in experiment [4].

In experiment [3], `C=CC(=O)NCc1nc(-c2ccc(OC(F)(F)F)cc2)c2ncn(C)c2c1[C@@H](O)CO` (single isomer, unassigned) [Compound 71] displayed an IC50 of 120 nM.

As to `C=CC(=O)N[C@@H](C)c1cc(-c2ccc(OC(F)(F)F)cc2)c2c(c1CO)CCO2` (single isomer, unassigned) [Compound 18], the IC50 in experiment [3] is 800 nM.

On to `C=CC(=O)NCc1cc(-c2ccc(OC(F)(F)F)cc2)c2ncn(C)c2c1C#C[C@@H](O)CO` [Compound 75, (R)-N-((7-(3,4-dihydroxybut-1-yn-1-yl)-1-methyl-4-(4-(trifluoromethoxy)phenyl)-1H-benzo[d]imidazol-6-yl)methyl)acrylamide], for which the results for the IC50 in experiment [1], in experiment [2] and in experiment [4] were 9 nM, 160 nM and 13 nM, respectively.

`Cn1cnc2c(-c3ccc(OC(F)(F)F)cc3)nc(C3CN(C(=O)C4=CCC4)C3)nc21` [Compound 115, Cyclobut-1-en-1-yl(3-(9-methyl-6-(4-(trifluoromethoxy)phenyl)-9H-purin-2-yl)azetidin-1-yl)methanone]: the IC50 in experiment [2] came to 9 nM; in experiment [3], 2.25 nM; in experiment [4] it was 4.85 nM.

As to `[2H]C([2H])=C([2H])C(=O)NCc1nc(-c2ccc(OC(F)(F)F)cc2)c2ncsc2n1` [Compound 101, N-((7-(4-(Trifluoromethoxy)phenyl)thiazolo[5,4-d]pyrimidin-5-yl)methyl)acrylamide-2,3,3-d3], the 50% inhibitory concentration (IC50) in experiment [2] amounted to 216 nM; in experiment [3] it was 15.1 nM; in experiment [4], 275 nM.

For `C=CC(=O)NCc1cc(-c2ccc(OC(F)(F)F)cc2)c2nccnc2c1[C@H](O)CO` (single isomer, unassigned) [Compound 79], the values for the IC50 in experiment [2] and in experiment [4] were 1900 nM and 40 nM, respectively.

For `C=CC(=O)NCc1cc(-c2ccc(OC(F)(F)F)cc2)c2ncoc2c1[C@@H]1CNC(=O)O1` (single isomer, unassigned) [Compound 112], the results for the 50% inhibitory concentration (IC50) in experiment [1], in experiment [3] and in experiment [4] were 2400 nM, 520 nM and 360 nM, respectively.

On to `C=CC(=O)NCc1cc(-c2ccc(OC(F)(F)F)cc2)c2ncn(C)c2c1C(N)=O` [Compound 76, 3-methyl-5-[(prop-2-enoylamino)methyl]-7-[4-(trifluoromethoxy)phenyl]benzimidazole-4-carboxamide], for which the IC50 came out at 1300 nM in experiment [2], 260 nM in experiment [3] and 230 nM in experiment [4].

With `O=C(CCl)NCc1cc(-c2ccc(OC(F)(F)F)cc2)c2c(c1CO)CCO2` [Compound 25, 2-Chloro-N-((4-(hydroxymethyl)-7-(4-(trifluoromethoxy)phenyl)-2,3-dihydrobenzofuran-5-yl)methyl)acetamide], the IC50 amounted to 4.4 nM in experiment [1], 3.7 nM in experiment [3] and 3.9 nM in experiment [4].

For the molecule `O=C(CCl)NCc1nc(-c2ccc(OC(F)(F)F)cc2)c2ncsc2n1` [Compound 15, 2-chloro-N-[[7-[4-(trifluoromethoxy)phenyl]thiazolo[5,4-d]pyrimidin-5-yl]methyl]acetamide], the IC50 in experiment [2] was determined as 70 nM; in experiment [3], 5 nM; in experiment [4], 300 nM.

As for `C=CC(=O)NCc1nc(-c2ccc(OC(F)(F)F)cc2)c2ncsc2n1` [Compound 21, N-[[7-[4-(trifluoromethoxy)phenyl]thiazolo[5,4-d]pyrimidin-5-yl]methyl]prop-2-enamide], the IC50 in experiment [2] came out at 72.7 nM; in experiment [3] it was 11.9 nM; in experiment [4], 190 nM.

On to `C=CC(=O)N1CC[C@H](c2nc(-c3ccc(OC(F)(F)F)cc3)c3ncn(C)c3n2)C1` (single isomer, unassigned) [Compound 123], for which the half-maximal inhibitory concentration (IC50) in experiment [1] was 17 nM; in experiment [2], 80 nM; in experiment [4], 7.8 nM.

`C=CC(=O)NCc1cc(-c2ccc(OC(F)(F)F)cc2)c2ncn(C)c2c1[C@@H](O)CO` (single isomer, unassigned) [Compound 31] displayed an IC50 in experiment [3] of 55 nM.

Consider `C=CC(=O)NCc1cc(-c2ccc(OC(F)(F)F)cc2)c2nccnc2c1[C@@H](O)CO` [Compound 28, N-[[5-[(1R)-1,2-dihydroxyethyl]-8-[4-(trifluoromethoxy)phenyl]quinoxalin-6-yl]methyl]prop-2-enamide], for which the half-inhibitory concentration (IC50) was 390 nM in experiment [2] and 15.3 nM in experiment [4].

In the case of `C=CC(=O)NCc1nc(-c2ccc(OC(F)(F)F)cc2)c2ncn(C)c2c1[C@H](O)CO` (single isomer, unassigned) [Compound 70], the IC50 in experiment [3] is 260 nM. This lies in the sub-micromolar range.

Turning to `C=CC(=O)NCc1cc(-c2ccc(OC(F)(F)F)cc2)c2ncn(C)c2c1C#C[C@H](O)CO` [Compound 74, (S)—N-((7-(3,4-dihydroxybut-1-yn-1-yl)-1-methyl-4-(4-(trifluoromethoxy)phenyl)-1H-benzo[d]imidazol-6-yl)methyl)acrylamide], the IC50 in experiment [1] turned out to be 16 nM; in experiment [2] it was 340 nM; in experiment [4] it was 17 nM.

On to `C/C=C/S(=O)(=O)N1CC(c2nc(-c3ccc(OC(F)(F)F)cc3)c3ncn(C)c3n2)C1` [Compound 116, (E)-9-Methyl-2-(1-(prop-1-en-1-ylsulfonyl)azetidin-3-yl)-6-(4-(trifluoromethoxy)phenyl)-9H-purine], for which the IC50 in experiment [1] was found to be 5.3 nM; in experiment [4], 8.7 nM.

Consider `C=CS(=O)(=O)NCc1cc(-c2ccc(OC(F)(F)F)cc2)c2c(c1CO)CCO2` [Compound 19, N-((4-(Hydroxymethyl)-7-(4-(trifluoromethoxy)phenyl)-2,3-dihydrobenzofuran-5-yl)methyl)ethenesulfonamide], for which the IC50 in experiment [1] is 4 nM; in experiment [2], 8 nM.

For the molecule `C=CC(=O)N1CC(c2nc(-c3ccc(OC(F)(F)F)cc3)c3ncn(C)c3n2)C1` [Compound 62, 1-[3-[9-methyl-6-[4-(trifluoromethoxy)phenyl]purin-2-yl]azetidin-1-yl]prop-2-en-1-one], the IC50 in experiment [3] stood at 2 nM; in experiment [4], 3.1 nM.

For `C=CC(=O)NCc1cc(-c2ccc(OC(F)(F)F)cc2)c2ncoc2c1[C@H]1CNC(=O)O1` (single isomer, unassigned) [Compound 111], the values for the IC50 in experiment [1], in experiment [3] and in experiment [4] were 160 nM, 290 nM and 70 nM, respectively.

As for `C=CC(=O)NCc1cc(-c2ccc(OC(F)(F)F)cc2)c2ncn(C)c2c1[C@H](O)CO` (single isomer, unassigned) [Compound 30], the IC50 in experiment [3] worked out at 53 nM.

`C=CC(=O)N[C@H](C)c1cc(-c2ccc(OC(F)(F)F)cc2)c2c(c1CO)CCO2` (single isomer, unassigned) [Compound 17]: the IC50 in experiment [3] amounted to 5700 nM. Compared with the last molecule, the IC50 is about 110-fold higher.

For the molecule `C/C=C(\C)C(=O)N1CC(c2nc(-c3ccc(OC(F)(F)F)cc3)c3ncn(C)c3n2)C1` [Compound 120, (E)-2-Methyl-1-(3-(9-methyl-6-(4-(trifluoromethoxy)phenyl)-9H-purin-2-yl)azetidin-1-yl)but-2-en-1-one], the results for the IC50 in experiment [3] and in experiment [4] were 220 nM and 840 nM, respectively.

As for `C=CC(=O)NCc1cc(-c2ccc(OC(F)(F)F)cc2)c2c(c1CO)CCO2` [Compound 12, N-((4-(Hydroxymethyl)-7-(4-(trifluoromethoxy)phenyl)-2,3-dihydrobenzofuran-5-yl)methyl)acrylamide], the IC50 is 15.2 nM in experiment [3] and 18.3 nM in experiment [4].
